Each block holds one compound with its values, some of them ahead of it. Active and inactive are the calls of the source. The rule behind the calls is not given here.
What was measured:
[1] = Half life in Sprague-Dawley rat at 1 mg/kg,iv administration measured upto 24 hrs by LC-MS/MS analysis; assay type: ADME, organism-based; details: in vivo
[2] = Volume of distribution at steady state in Sprague-Dawley rat at 1 mg/kg,iv administration measured upto 24 hrs by LC-MS/MS analysis; assay type: ADME, organism-based; details: in vivo, read-out: Vdss
[3] = MRTinfinity in Sprague-Dawley rat at 1 mg/kg,iv administration measured upto 24 hrs by LC-MS/MS analysis; assay type: ADME, organism-based; details: in vivo
[4] = Clearance in Sprague-Dawley rat at 1 mg/kg,iv administration measured upto 24 hrs by LC-MS/MS analysis; assay type: ADME, organism-based; details: in vivo
[5] = AUC (0-t) in Sprague-Dawley rat at 1 mg/kg,iv administration measured upto 24 hrs by LC-MS/MS analysis; assay type: ADME, organism-based; details: in vivo
[6] = Cmax in Sprague-Dawley rat at 10 mg/kg,po administration measured upto 24 hrs by LC-MS/MS analysis; assay type: ADME, organism-based; details: in vivo
[7] = MRTinfinity in Sprague-Dawley rat at 10 mg/kg,po administration measured upto 24 hrs by LC-MS/MS analysis; assay type: ADME, organism-based; details: in vivo
[8] = Apparent oral clearance in Sprague-Dawley rat at 10 mg/kg,po administration measured upto 24 hrs by LC-MS/MS analysis; assay type: ADME, organism-based; details: in vivo
[9] = AUC (0-t) in Sprague-Dawley rat at 10 mg/kg,po administration measured upto 24 hrs by LC-MS/MS analysis; assay type: ADME, organism-based; details: in vivo
[10] = Apparent volume of distribution during terminal phase in Sprague-Dawley rat at 10 mg/kg,po administration measured upto 24 hrs by LC-MS/MS analysis; assay type: ADME, organism-based; details: in vivo, read-out: Vz/F
[11] = Oral bioavailability in Sprague-Dawley rat at 10 mg/kg measured upto 24 hrs by LC-MS/MS analysis; assay type: ADME, organism-based; details: in vivo
MV4-11 [12] = assay: Induction of apoptosis in human MV4-11 cells assessed as viable cells at 1.25 uM incubated for 24 hrs by annexin V-FITC/PI staining based flow cytometric analysis (reference value: 97%); assay type: functional; details: Homo sapiens, MV4-11, read-out: Activity
MV4-11 [13] = assay: Induction of apoptosis in human MV4-11 cells assessed as viable cells at 5 uM incubated for 24 hrs by annexin V-FITC/PI staining based flow cytometric analysis (reference value: 97%); assay type: functional; details: Homo sapiens, MV4-11, read-out: Activity
MV4-11 [14] = assay: Induction of apoptosis in human MV4-11 cells assessed as viable cells at 10 uM incubated for 24 hrs by annexin V-FITC/PI staining based flow cytometric analysis (reference value: 97%); assay type: functional; details: Homo sapiens, MV4-11, read-out: Activity
MV4-11 [15] = assay: Induction of apoptosis in human MV4-11 cells assessed as necrotic cells at 0.625 uM incubated for 24 hrs by annexin V-FITC/PI staining based flow cytometric analysis (reference value: 2.35 %); assay type: functional
MV4-11 [16] = assay: Induction of apoptosis in human MV4-11 cells assessed as necrotic cells at 2.5 uM incubated for 24 hrs by annexin V-FITC/PI staining based flow cytometric analysis (reference value: 2.35 %); assay type: functional
MV4-11 [17] = assay: Induction of apoptosis in human MV4-11 cells assessed as necrotic cells at 5 uM incubated for 24 hrs by annexin V-FITC/PI staining based flow cytometric analysis (reference value: 2.35 %); assay type: functional
MV4-11 [18] = assay: Induction of cell cycle arrest in human MV4-11 cells assessed as accumulation of cells at G0/G1 phase at 1.25 uM incubated for 24 hrs by propidium iodide staining flow cytometric analysis (reference value: 37.64 %); assay type: functional
MV4-11 [19] = assay: Induction of cell cycle arrest in human MV4-11 cells assessed as accumulation of cells at G0/G1 phase at 2.5 uM incubated for 24 hrs by propidium iodide staining flow cytometric analysis (reference value: 37.64 %); assay type: functional
MV4-11 [20] = assay: Induction of cell cycle arrest in human MV4-11 cells assessed as accumulation of cells at G2/M phase at 0.3125 uM incubated for 24 hrs by propidium iodide staining flow cytometric analysis (reference value: 18 %); assay type: functional
MV4-11 [21] = assay: Induction of cell cycle arrest in human MV4-11 cells assessed as accumulation of cells at G2/M phase at 0.625 uM incubated for 24 hrs by propidium iodide staining flow cytometric analysis (reference value: 18 %); assay type: functional
MV4-11 [22] = assay: Induction of cell cycle arrest in human MV4-11 cells assessed as accumulation of cells at G2/M phase at 1.25 uM incubated for 24 hrs by propidium iodide staining flow cytometric analysis (reference value: 18 %); assay type: functional
MV4-11 [23] = assay: Induction of cell cycle arrest in human MV4-11 cells assessed as accumulation of cells at G2/M phase at 2.5 uM incubated for 24 hrs by propidium iodide staining flow cytometric analysis (reference value: 18 %); assay type: functional
MV4-11 [24] = assay: Induction of cell cycle arrest in human MV4-11 cells assessed as accumulation of cells at S phase at 0.3125 uM incubated for 24 hrs by propidium iodide staining flow cytometric analysis (reference value: 43.94 %); assay type: functional
MV4-11 [25] = assay: Induction of cell cycle arrest in human MV4-11 cells assessed as accumulation of cells at S phase at 1.25 uM incubated for 24 hrs by propidium iodide staining flow cytometric analysis (reference value: 43.94 %); assay type: functional
MV4-11 [26] = assay: Induction of cell cycle arrest in human MV4-11 cells assessed as accumulation of cells at S phase at 5 uM incubated for 24 hrs by propidium iodide staining flow cytometric analysis (reference value: 43.94 %); assay type: functional
MV4-11 [27] = assay: Induction of apoptosis in human MV4-11 cells assessed as downregulation of c-Myc expression incubated for 48 hrs by Western blotting analysis; assay type: functional, cell-based
MV4-11 [28] = assay: Induction of apoptosis in human MV4-11 cells assessed as downregulation of CDK6 expression at 0.3125 to 2.5 uM incubated for 48 hrs by Western blotting analysis; assay type: functional, cell-based; details: dose 0.3125-2.5 µM
MV4-11 [29] = assay: Induction of apoptosis in human MV4-11 cells assessed as upregulation of p21 expression at 0.3125 to 2.5 uM incubated for 48 hrs by Western blotting analysis; assay type: functional, cell-based; details: dose 0.3125-2.5 µM
MV4-11 [30] = assay: Induction of apoptosis in human MV4-11 cells assessed as upregulation of PARP expression at 0.3125 to 2.5 uM incubated for 48 hrs by Western blotting analysis; assay type: functional, cell-based; details: dose 0.3125-2.5 µM
MV4-11 [31] = assay: Induction of apoptosis in human MV4-11 cells assessed as downregulation of c-Myc expression at 500 nM hrs by Western blotting analysis; assay type: functional, cell-based; details: TDE = time-dependent effect
MV4-11 [32] = assay: Induction of apoptosis in human MV4-11 cells assessed as downregulation of CDK6 expression at 500 nM hrs by Western blotting analysis; assay type: functional, cell-based; details: TDE = time-dependent effect
MV4-11 [33] = assay: Induction of apoptosis in human MV4-11 cells assessed as upregulation of cleaved PARP expression at 500 nM hrs by Western blotting analysis; assay type: functional, cell-based; details: TDE = time-dependent effect
MV4-11 [34] = assay: Induction of apoptosis in human MV4-11 cells assessed as upregulation of p21 expression at 500 nM hrs by Western blotting analysis; assay type: functional, cell-based; details: TDE = time-dependent effect
[35] = biological target: Bromodomain testis-specific protein (Homo sapiens) (UniProt Q58F21); details: time 30.0 min
[36] = biological target: Bromodomain-containing protein 2 (Homo sapiens) (UniProt P25440); details: time 30.0 min
Sequence of Bromodomain-containing protein 2 (Homo sapiens) (P25440 whole entry, looked up): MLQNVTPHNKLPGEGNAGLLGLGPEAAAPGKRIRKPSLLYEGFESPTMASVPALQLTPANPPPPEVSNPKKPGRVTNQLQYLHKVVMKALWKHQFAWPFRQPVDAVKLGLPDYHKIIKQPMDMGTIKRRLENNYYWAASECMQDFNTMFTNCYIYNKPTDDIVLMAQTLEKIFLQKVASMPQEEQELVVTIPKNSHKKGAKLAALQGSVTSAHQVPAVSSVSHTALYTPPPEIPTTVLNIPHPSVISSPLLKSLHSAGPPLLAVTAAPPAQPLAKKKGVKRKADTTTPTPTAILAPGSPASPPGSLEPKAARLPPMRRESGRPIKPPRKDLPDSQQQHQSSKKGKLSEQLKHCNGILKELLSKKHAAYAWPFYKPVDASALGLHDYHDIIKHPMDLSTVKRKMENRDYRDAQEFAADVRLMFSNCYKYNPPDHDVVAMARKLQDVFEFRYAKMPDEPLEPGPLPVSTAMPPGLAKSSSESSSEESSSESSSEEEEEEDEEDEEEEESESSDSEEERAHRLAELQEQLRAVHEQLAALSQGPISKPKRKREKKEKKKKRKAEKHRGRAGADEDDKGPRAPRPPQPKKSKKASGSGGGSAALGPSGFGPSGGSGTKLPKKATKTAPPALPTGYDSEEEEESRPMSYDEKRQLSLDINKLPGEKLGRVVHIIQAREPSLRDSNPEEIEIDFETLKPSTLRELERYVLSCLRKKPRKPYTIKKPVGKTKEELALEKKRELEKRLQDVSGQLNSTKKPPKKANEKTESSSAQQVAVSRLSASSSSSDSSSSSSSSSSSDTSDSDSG

- half-life [1]: 42 min
- Vd [2]: 0.6 L/kg
- MRT inf [3]: 50.4 min
- clearance [4]: 12.1 mL/min/kg
- AUC(0-t) at 24 h [5]: 1380 ng·h/mL
- Cmax [6]: 1780 ng/mL
- MRT inf [7]: 5.86 h
- CL/F [8]: 10.4 mL/min/kg
- AUC(0-t) at 24 h [9]: 16000 ng·h/mL
- Vd/F [10]: 2.39 L/kg
- bioavailability [11]: 114%
SMILES: COc1cc2c(cc1-c1c(C)noc1C)ncc1nc(C)n([C@H](C)c3ccccc3)c12
- viability at 1.25 µM (MV4-11 [12]): 83.1%
- viability at 5 µM (MV4-11 [13]): 78.4%
- viability at 10 µM (MV4-11 [14]): 73.5%
- Activity (MV4-11 [15]): 6%
- Activity (MV4-11 [16]): 8%
- Activity (MV4-11 [17]): 8%
- Activity (MV4-11 [18]): 71.52%
- Activity (MV4-11 [19]): 72.14%
- Activity (MV4-11 [20]): 6.33%
- Activity (MV4-11 [21]): 16.18%
- Activity (MV4-11 [22]): 5.16%
- Activity (MV4-11 [23]): 7.33%
- Activity (MV4-11 [24]): 44.55%
- Activity (MV4-11 [25]): 23.31%
- Activity (MV4-11 [26]): 17.41%
- Activity (MV4-11 [27]): Dose-Dependent Effect
- Activity (MV4-11 [28]): Active
- Activity (MV4-11 [29]): Active
- Activity (MV4-11 [30]): Active
- Activity (MV4-11 [31]): Tde
- Activity (MV4-11 [32]): Tde
- Activity (MV4-11 [33]): Tde
- Activity (MV4-11 [34]): Tde

- ΔTm [35]: 5 °C
- ΔTm [36]: 5 °C
SMILES: COc1cc2c(cc1-c1c(C)n[nH]c1C)ncc1nc(C)n([C@H](C)c3ccccc3)c12

Reference: ChEMBL document CHEMBL5532655, “Discovery of (R)-4-(8-methoxy-2-methyl-1-(1-phenylethy)-1H-imidazo[4,5-c]quinnolin-7-yl)-3,5-dimethylisoxazole as a potent and selective BET inhibitor for treatment of acute myeloid leukemia (AML) guided by FEP calculation” (Eur J Med Chem, 2024)
